Results from article PMC3477139 (PLoS ONE, 2012).
Each block holds one compound with its values, some of them ahead of it.

Legend:
adenylyl cyclase = assay: cAMP generation by direct activation of adenylyl cyclase with forskolin; assay type: biochemical; conditions: membranes from HEK-GLP-1R cells, 5 min, 30°C, IBMX
Procedure: Generation of cAMP by cell membranes was determined based on previously published methods, [21]. Membranes were prepared from confluent cell monolayers grown in 80 cm^2 flasks. Cells were washed with 5 ml HBS (154 mM NaCl, 10 mM HEPES, pH 7.4, 37°C), detached using harvesting buffer (154 mM NaCl, 10 mM HEPES, 5.4 mM EDTA, pH 7.4, 37°C) and collected by centrifugation (200 g, 2 min, 4°C). The cell pellet was resuspended in 1 ml of homogenization buffer (10 mM HEPES, 10 mM EDTA, pH 7.4) and sonicated (Sonifier Ultrasonic Cell Disruptor; Branson, CT) at 30% of the maximal amplitude for 3×5 s at ∼30 s intervals before centrifugation (30,000 g, 4°C, 10 min). After removal of the supernatant, pellets were collected in resuspension buffer (10 mM HEPES, 0.1 mM EDTA, pH 7.4), protein concentration adjusted to 1 mg/ml and stored in aliquots at −80°C until assay. Generation of cAMP was determined in 100 µl containing: 10 mM HEPES, 12 mM MgCl2, 60 mM NaCl, 1.2 mM EDTA, 1.2% w/v BSA, 5% DMSO, 480 µM ATP, 2 mM IBMX, 10 µM GTP, 20 µg membrane and ligands as indicated. […]
(§1) The cAMP was extracted from either intact cell or membrane preparations using a method identical to that for extraction of Ins(1,4,5)P3 [22]. Levels of cAMP were then determined by a competitive radioreceptor assay using binding protein purified from bovine adrenal glands and related to cellular protein assessed by Bradford assay.

[1] = biological target: GLP-1 7-36 amide 7-36 (Homo sapiens) (UniProt P01275); conditions: cited from earlier work
GLP-1 7-36 amide 7-36 (Homo sapiens), sequence (P01275 7-36): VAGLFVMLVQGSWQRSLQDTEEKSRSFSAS

GLP-1R [2] = conditions: intact GLP-1; ref [16], [18], [30], [40]; cited from earlier work
type 2 diabetes = conditions: exogenous GLP-1; ref [11]; cited from earlier work
Excerpt: GLP-1 is generated within intestinal L-cells by the a ...

β2-adrenoceptors = assay: cAMP accumulation via β2-adrenoceptors in HEK-GLP-1R cells; assay type: cell-based; conditions: isoproterenol 100 µM, IBMX, 5% DMSO
Procedure: Ligands or vehicle control (40 µl) were added and reactions terminated after the appropriate times by replacement of the aqueous phase with ice-cold 0.5 M trichloroacetic acid. […] Reactions were terminated as above.
as §1
All data are mean±/+s.e.m., n = 3–4, *** P<0.001 and ** P<0.01 by Bonferroni's multiple range test. For clarity only differences between ‘numerical’ and ‘co-addition’ conditions are shown.

[3] = in vivo, cited from earlier work
Excerpt: (§2) Such proteolysis is thought to remove biological activity.

GLP-1R [4] = conditions: ref [9]; cited from earlier work
Excerpt: as §2

human GLP-1R [5] = biological target: T1, human GLP-1R (Homo sapiens, UniProt P43220); assay: cAMP generation in intact HEK-GLP-1R cells; assay type: cell-based; conditions: IBMX; for EC50: pEC50 of the GLP-1 9–36 amide response (cAMP), 15 min, mean±s.e.m., n = 4
T1 construct: expressed in transfected cells; vector pcDNA5/FRT
T1 sequence (P43220 24-463): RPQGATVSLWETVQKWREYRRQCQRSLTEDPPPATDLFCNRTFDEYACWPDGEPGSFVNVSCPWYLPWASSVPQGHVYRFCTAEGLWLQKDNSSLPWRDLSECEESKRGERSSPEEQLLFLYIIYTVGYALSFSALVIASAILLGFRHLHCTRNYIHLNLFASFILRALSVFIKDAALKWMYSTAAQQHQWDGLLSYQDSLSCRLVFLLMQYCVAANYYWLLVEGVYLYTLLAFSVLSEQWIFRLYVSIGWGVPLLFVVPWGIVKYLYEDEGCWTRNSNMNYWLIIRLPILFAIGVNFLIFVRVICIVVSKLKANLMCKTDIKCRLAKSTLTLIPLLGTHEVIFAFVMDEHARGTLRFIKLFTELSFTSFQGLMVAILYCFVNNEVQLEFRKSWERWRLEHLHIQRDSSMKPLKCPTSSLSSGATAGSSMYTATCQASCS
Procedure: (§3) HEK-Flp-In cells with stable recombinant expression of the human GLP-1R (HEK-GLP-1R) were cultured in DMEM with high glucose supplemented with 10% FBS, 100 µg/ml streptomycin and 100 units/ml penicillin sulphate. These cells were originally generated by transfection of HEK-Flp-In cells (Invitrogen: Paisley, U.K.) with pcDNA5/FRT containing the human GLP-1R. […] INS-1E cells were kindly provided by Prof. C.B. Wollheim of the University of Geneva, Switzerland [19]. These cells were used between passages 65–90 and cultured in RPMI media containing 11.1 mM glucose, 5% heat-inactivated FBS, 100 µg/ml streptomycin, 100 units/ml penicillin sulphate, 100 units/ml neomycin, 50 µM β-mercaptoethanol, 10 mM HEPES and 1 mM sodium pyruvate. All cells were cultured at 37°C in a 5% CO2 humidified atmosphere and passaged at confluence.
(§4) Confluent monolayers of HEK-GLP-1R cells cultured in 24-well plates pre-coated with poly-D-lysine (0.1% w/v) where washed twice with 0.5 ml Krebs-HEPES buffer (KHB, composition: 10 mM HEPES; 4.2 mM NaHCO3; 11.7 mM D-glucose; 1.18 mM MgSO4·7H2O; 1.18 mM KH2PO4; 4.69 mM KCl; 118 mM NaCl; 1.3 mM CaCl2·2H2O; pH 7.4) containing 0.1% (w/v) BSA (KHB-BSA) before incubation (10 min, 37°C) in 360 µl KHB-BSA containing 500 µM isobutylmethylxanthine (IBMX). Ligands or vehicle control (40 µl) were added and reactions terminated after the appropriate times by replacement of the aqueous phase with ice-cold 0.5 M trichloroacetic acid. INS-1E cells grown to confluence in 24-well plates were treated similarly with the exception that after washing in KHB, cells were incubated in 200 µl KHB-BSA containing 1.4 mM glucose without IBMX for 2 h followed by challenge with ligands (or vehicle) for 15 min at 37°C in 400 µl KHB-BSA, in the presence of 10 mM glucose and 500 µM IBMX. Reactions were terminated as above.
as §1
(§5) Concentration-response curves were fitted using GraphPad Prism (GraphPad Software Inc., CA) using a standard four parameter logistic equation. All data are representative of n≥3 or are presented as mean+/±s.e.m., where n = 3 unless otherwise stated. Statistical analysis was by oneway ANOVA and where P<0.05, followed by Bonferroni's or Dunnett's multiple range test as indicated. Alternatively analysis was performed by Student's t-test. Where potency estimates are given these are pEC50 values (−log10 of the molar concentration giving 50% of the maximal response).

human GLP-1R [6] = biological target: T1, human GLP-1R; assay: cAMP generation by membranes from HEK-GLP-1R cells; assay type: biochemical; conditions: read-out: Emax as % of the GLP-1 7–36 amide response, cAMP (membranes); 5 min, 30°C, IBMX
Procedure: as §1, §5

[7] = biological target: T2, GLP-1R (native, rat insulinoma cell line INS-1E) (Rattus norvegicus, UniProt P32301); assay: cAMP generation in INS-1E cells; assay type: cell-based; conditions: INS-1E, read-out: Emax as % of that evoked by GLP-1 7–36 amide, cAMP (INS-1E), in the presence of compound 2
T2 construct: the rat insulinoma cell line, INS-1E, with native expression of the GLP-1R; endogenous in cells; host or cells: INS-1E rat insulinoma cells (gift of Prof. C.B. Wollheim)
T2 sequence (P32301 22-463): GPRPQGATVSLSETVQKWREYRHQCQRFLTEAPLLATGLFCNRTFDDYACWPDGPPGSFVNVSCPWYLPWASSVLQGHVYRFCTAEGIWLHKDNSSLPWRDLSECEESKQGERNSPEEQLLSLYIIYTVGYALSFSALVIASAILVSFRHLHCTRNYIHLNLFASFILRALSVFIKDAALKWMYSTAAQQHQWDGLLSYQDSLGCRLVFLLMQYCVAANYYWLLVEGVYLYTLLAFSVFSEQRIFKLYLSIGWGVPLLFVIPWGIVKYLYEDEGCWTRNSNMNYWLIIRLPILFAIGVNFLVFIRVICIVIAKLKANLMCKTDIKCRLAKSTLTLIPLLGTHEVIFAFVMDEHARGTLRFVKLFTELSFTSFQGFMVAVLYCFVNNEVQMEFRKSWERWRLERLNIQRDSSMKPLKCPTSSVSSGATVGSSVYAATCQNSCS
Procedure: as §3, §4, §1, §5

human GLP-1R [8] = biological target: T1, human GLP-1R; assay: ERK activation (phospho-ERK Western blot) in HEK-GLP-1R cells; assay type: cell-based; conditions: GLP-1 9–36 amide (1 µM) + compound 2 (0.1 µM to 1 µM), 5 min; n = 3
Procedure: as §5

GLP-1R, sequence (P43220 24-463): as the sequence (P43220 24-463) above

cAMP generation by forskolin (in words) (adenylyl cyclase): robustly increased cAMP generation
Compound: C=C[C@@]1(C)CC(=O)[C@]2(O)[C@@]3(C)[C@@H](O)CCC(C)(C)[C@@H]3[C@H](O)[C@H](OC(C)=O)[C@@]2(C)O1 [forskolin]

Compound: GLP-1R (from UniProt P43220)
Kd [1]: 1 nM

Compound: Glucagon-like peptide-1 [GLP-1]
affinity at the GLP-1R (GLP-1R [2]): nanomolar to sub-nanomolar affinity | effect on insulin secretion and hyperglycaemia in type 2 diabetes (type 2 diabetes): potentiates glucose-dependent insulin secretion and can normalize hyperglycaemia in type 2 diabetes

Compound: CC(C)NCC(O)c1ccc(O)c(O)c1 (stereo not shown) [isoproterenol]
cAMP accumulation (in words) (β2-adrenoceptors): stimulation of cAMP accumulation

Compound: GLP-1 7–37: generated from proglucagon by prohormone convertase 1/3
fasting plasma concentration [3]: < 10 pM | plasma concentration following a meal [3]: ~10 pM | relative potency at the GLP-1R (GLP-1R [4]): essentially equipotent

EC50 (human GLP-1R [5]; compound 2: 0 µM): 309 nM | EC50 (human GLP-1R [5]; compound 2: 0.03 µM): 85.1 nM | EC50 (human GLP-1R [5]; compound 2: 0.1 µM, ** P<0.01 versus 0 µM compound 2): 32.4 nM | EC50 (human GLP-1R [5]; compound 2: 0.3 µM, *** P<0.001 versus 0 µM compound 2): 8.91 nM | EC50 (human GLP-1R [5]; compound 2: 1.0 µM, *** P<0.001 versus 0 µM compound 2): 5.25 nM | EC50 (human GLP-1R [5]; compound 2: 3.0 µM, *** P<0.001 versus 0 µM compound 2): 3.89 nM | Emax (human GLP-1R [5]; read-out: Emax as % of the GLP-1 7–36 amide response, cAMP, no pretreatment, 15 min challenge): 18% | Emax (human GLP-1R [6]): 23% | Emax [7]: ~50% | ERK activation in excess of the sum of the responses to the ligands alone (human GLP-1R [8]): 45–69%
Compound: CC[C@H](C)[C@H](NC(=O)[C@H](Cc1ccccc1)NC(=O)[C@H](CCC(=O)O)NC(=O)[C@H](CCCCN)NC(=O)[C@H](C)NC(=O)[C@H](C)NC(=O)[C@H](CCC(N)=O)NC(=O)CNC(=O)[C@H](CCC(=O)O)NC(=O)[C@H](CC(C)C)NC(=O)[C@H](Cc1ccc(O)cc1)NC(=O)[C@H](CO)NC(=O)[C@H](CO)NC(=O)[C@@H](NC(=O)[C@H](CC(=O)O)NC(=O)[C@H](CO)NC(=O)[C@@H](NC(=O)[C@H](Cc1ccccc1)NC(=O)[C@@H](NC(=O)CNC(=O)[C@@H](N)CCC(=O)O)[C@@H](C)O)[C@@H](C)O)C(C)C)C(=O)N[C@@H](C)C(=O)N[C@@H](Cc1c[nH]c2ccccc12)C(=O)N[C@@H](CC(C)C)C(=O)N[C@H](C(=O)N[C@@H](CCCCN)C(=O)NCC(=O)N[C@@H](CCCNC(=N)N)C(N)=O)C(C)C [GLP-1 9–36 amide, Glucagon-like peptide-1 9–36 amide]
peak plasma level, oral glucose tolerance test ([3]; po): ~60 pM
